The values that follow come from EPA's ToxValDB 9.5.

“And” between values parts separate entries of the source, which are not always exact repeats. Equal entries are not always repeated.

The test system of data set [1] is Rattus norvegicus. Conditions: for LOEL / NOEL: Hershberger, gavage; for LEL: uterotrophic, duration: 3 days, Active.
Data set [2] deals with Rattus norvegicus. The note with it: developmental; oral; gavage; M; Sprague-Dawley; generation: F1; F1: Testosterone (Testes) production.
For data set [3], the system named is Rattus norvegicus. Conditions: chronic, oral, diet, lens opacity and cataracts.
For the next data set, the system named is Mus musculus. The note with it: for NOAEL (% diet): CD1.
Data set [4] has as its system Rattus norvegicus. The note with it: for LD50 / LC50: acute.
Data set [5] has as its system Rattus norvegicus. Conditions: oral.
The mark [6] stands for this setting: duration: 10 days, oral, Wistar, active + Negative + Antiandrogenic + anti-androgenic.
The mark [7] stands for this setting: repeat dose other, inhalation, B6C3F1.
Where [8] appears, read: duration: 7 days, oral, Sprague-Dawley, active + Antiandrogenic + anti-androgenic.
Where [9] appears, read: subchronic, duration: 13 weeks, oral, diet, M, B6C3F1.
Where [10] appears, read: subchronic, duration: 13 weeks, oral, diet, Fischer 344.
[11] abbreviates: short-term, duration: 28 days, gavage, M, Sprague-Dawley, Clinical Observation: Spontaneous locomotion decrease, Respiratory rate decrease, Prone position Eyelid closure Staggering gait Incomplete ….

In general, LD50 refers to the dose at which mortality reaches 50%. Low readings indicate greater toxicity, high ones lower toxicity. The NOAEL is the highest tested level that showed no adverse finding. Broadly, the LOAEL is the lowest tested level that showed an adverse finding.

On to `CCCCCOC(=O)c1ccccc1C(=O)OCCCCC` [Dipentyl phthalate], for which, in the data set with Rattus norvegicus [1] (setting [6]), the LOEL worked out at 1000 mg/kg-day and the NOEL was 200 mg/kg-day. In the data set on Rattus norvegicus [2], this molecule showed an NOEL of 50 mg/kg-day.

For the molecule `c1cc[n+]2c(c1)-c1cccc[n+]1CC2` [Diquat], the LEL with Rattus norvegicus [3] (F) amounted to 0.72 mg/kg-day; in the data set on Rattus norvegicus [3] (M), 0.58 mg/kg-day. In the data set on Rattus norvegicus [3] (M/F), this molecule returned an NOEL of 0.22 mg/kg-day.

Consider `CCCCCCCCCCCCCCCCCCOC(=O)CCSCCC(=O)OCCCCCCCCCCCCCCCCCC` [Distearyl thiodipropionate], for which the LD50 was above 2000 mg/kg in the data set on Mus musculus (acute, injection, Intraperitoneal); above 2000 mg/kg with Mus musculus (acute, oral); above 2000 mg/kg in the data set with Rattus norvegicus [4] (dermal); above 5000 mg/kg in the data set with Rattus norvegicus [4] (oral).

In the case of `CC(C)COC(=O)C(C)C` [Isobutyl isobutyrate], the LD50 in the data set on Mus musculus (acute, oral) was above 6400 mg/kg; in the data set with Rattus norvegicus [4] (oral), above 6400 mg/kg.

Consider `C=CC(=C)C` [Isoprene], for which the LC50 was 180000 mg/m3 and 157000 mg/m3 with Mus musculus (acute, inhalation); 180000 mg/m3 and 157000 mg/m3 with Rattus norvegicus [4] (inhalation). The NOAEL in the data set on Mus musculus (developmental, duration: 6 days, inhalation, CD-1/Swiss, generation: F1) worked out at 19500 mg/m3; in the data set with Mus musculus (setting [7]), 27.9 mg/m3; in the data set with Mus musculus (reproduction developmental, inhalation, B6C3F1) it was 195 mg/m3; in the data set with Rattus norvegicus [4] (developmental, duration: 6 days, inhalation, Sprague-Dawley, generation: F1), 19500 mg/m3; in the data set on Rattus norvegicus [4] (reproduction developmental, inhalation, Fischer 344), 195 mg/m3. Moreover, in the data set with Mus musculus (setting [7]), the LOAEL came to 195 mg/m3.

As to `CC(=O)[C@@]1(O)CC[C@H]2[C@@H]3C[C@H](C)C4=CC(=O)CC[C@]4(C)[C@H]3CC[C@@]21C` [Medroxyprogesterone], in the data set with Rattus norvegicus [1] (setting [6]), the LOEL worked out at 100 mg/kg-day and the NOEL worked out at 20 mg/kg-day.

Turning to `CCN(O)CC` [N,N-Diethylhydroxylamine], the LD50 with Mus musculus (acute, oral) stood at 2150 mg/kg; in the data set on Rattus norvegicus [4] (oral, gavage, WBS/W) it was 2190 mg/kg. This molecule also gave an LC50 in the data set on Rattus norvegicus [4] (inhalation, Sprague-Dawley) of 11400 mg/m3. The NOAEL with Rattus norvegicus [4] (reproduction developmental, oral, gavage, F, Sprague-Dawley) was determined as 250 mg/kg-day; with Rattus norvegicus [4] (short-term, duration: 5 days, inhalation, Sprague-Dawley) it was 547 mg/m3; with Rattus norvegicus [4] (short-term, duration: 28 days, inhalation, Sprague-Dawley) it was 547 mg/m3.

As to `O=C1CCC(=O)N1c1cc(Cl)cc(Cl)c1` [N-(3,5-Dichlorophenyl)succinimide], in the data set with Rattus norvegicus [1] (setting [8]), the LOEL was determined as 100 mg/kg-day and the NOEL came out at 50 mg/kg-day.

`OCC(CO)(CBr)CBr` [Pentaerythritol dibromide]: the LOAEL came out at 57.7 mg/kg-day in the data set with Mus musculus (chronic, duration: 104 weeks, oral, diet, B6C3F1); 123 mg/kg-day in the data set with Mus musculus (subchronic, duration: 13 weeks, oral, diet, F, B6C3F1); 246 mg/kg-day with Mus musculus (setting [9]); 240 mg/kg-day in the data set on Rattus norvegicus [4] (subchronic, duration: 3 months, oral, diet, Fischer 344); 240 mg/kg-day with Rattus norvegicus [4] (setting [10]). Moreover, the “NOAEL (% diet)” value was found to be 0.1 in the data set with Mus musculus (reproduction developmental, oral, diet, generation: F0); 0.1 in the data set with Mus musculus (reproduction developmental, oral, diet, generation: F1); 0.1 with Mus musculus (reproduction developmental, oral, diet, generation: F2). The results for the NOAEL in the data set on Mus musculus (setting [9]), in the data set on Rattus norvegicus [4] (setting [10]) and in the data set with Rattus norvegicus [5] (setting [11]) were 123 mg/kg-day, 120 mg/kg-day and 200 mg/kg-day, respectively. Moreover, the LD50 in the data set on Rattus norvegicus [4] (oral, gavage, Crl:CD1) was 1880 mg/kg; in the data set with Rattus norvegicus [4] (oral, gavage, Sprague-Dawley), above 2000 mg/kg. Besides, the NOEL in the data set on Rattus norvegicus [5] (setting [11]) was below 200 mg/kg-day; with Rattus norvegicus [5] (subchronic, duration: 13 weeks, diet, F, Fischer 344, Body Weight Changes: decrease + Urinalysis: Total protein increase, Urine volume increase, Specific gravity decrease + Blood Chemistry: TP …) it was 100 mg/kg-day; with Rattus norvegicus [5] (subchronic, duration: 13 weeks, diet, M/F, Fischer 344, Body Weight Changes: decrease + Urinalysis: Total protein increase, Urine volume increase, Specific gravity decrease + Blood Chemistry: TP …), below 120 mg/kg-day.

Regarding `CCCCOCCOCCOCc1cc2c(cc1CCC)OCO2` [Piperonyl butoxide], the NOEL in the data set on Rattus norvegicus [1] (duration: 10 days, oral, Sprague-Dawley, inactive + Negative + Negative + anti-androgenic + see note) was found to be 500 mg/kg-day.

For `CCCCCCCCCCCCOC(=O)CCSCCC(=O)OCCCCCCCCCCCC` [Propanoic acid, 3,3'-thiobis-, didodecyl ester], the LD50 with Mus musculus (acute, oral) was above 2000 mg/kg; with Rattus norvegicus [4] (oral), above 2500 mg/kg. In addition, the NOAEL in the data set with Rattus norvegicus [4] (reproduction developmental, duration: 13 weeks, oral, gavage, Sprague-Dawley) stood at 350 mg/kg-day; in the data set with Rattus norvegicus [4] (subchronic, duration: 13 weeks, oral, gavage, Sprague-Dawley), 350 mg/kg-day.

Take `CC(=O)S[C@@H]1CC2=CC(=O)CC[C@]2(C)[C@H]2CC[C@@]3(C)[C@@H](CC[C@@]34CCC(=O)O4)[C@H]12` [Spironolactone]: in the data set on Rattus norvegicus [1] (setting [6]), the LOEL came to 40 mg/kg-day and the NOEL came out at 8 mg/kg-day.

Turning to `CC(C)OB(OC(C)C)OC(C)C` [Triisopropyl orthoborate], the LD50 worked out at 2500 mg/kg in the data set with Mus musculus (acute, oral, Swiss) and 8130 mg/kg in the data set with Rattus norvegicus [4] (oral, gavage).

As for `C[C@H]1CCCC(=O)CCCCCc2cc(O)cc(O)c2C(=O)O1` [Zearalanone], the LEL with Rattus norvegicus [1] (oral) was determined as 0.18 mg/day.

`C[C@H]1CCC[C@H](O)CCC/C=C/c2cc(O)cc(O)c2C(=O)O1` [alpha-Zearalenol]: the LEL in the data set with Rattus norvegicus [1] (oral) worked out at 0.01 mg/day.

Take `CCCCCCCCCc1ccccc1O` [n-Nonylphenol]: in the data set on Rattus norvegicus [1] (duration: 10 days, oral, Sprague-Dawley, active + Negative + Antiandrogenic + anti-androgenic + slight delay in timing of PPS, but only 33% of rats had complete separation by end of…), the LOEL is 100 mg/kg-day and 160 mg/kg-day. This molecule also returned an LEL in the data set with Rattus norvegicus [1] (injection, subcutaneous) of 100 mg/kg-day.
